These results are taken from patent US8940756B2, “Dihydronaphthyridines and related compounds useful as kinase inhibitors for the treatment of proliferative diseases” (Deciphera Pharmaceuticals, Inc., priority 2012, dated 2015).

In experiment [1] the target is T1, c-KIT kinase (Seq ID no. 1) (Homo sapiens, UniProt P10721).
T1 construct: GST (N); TEV cleavage site (N); purchased deCODE Biostructures
The experiment can be described thus: c-KIT Kinase Assay (pyruvate kinase/lactate dehydrogenase coupled). Type of experiment: biochemical. The following applies: enzymatic assay, ATP 200 μM; read-out: KIT (wt). As for the experimental part: In this assay, the oxidation of NADH (measured by decrease in absorbance at 340 nm) was continuously monitored spectrophotometrically. […] The absorption at 340 nm was monitored continuously for 2 hours at 30° C. on Synergy 2 (BioTeK). The reaction rate was calculated using the 0 to 1 h time frame. Percent inhibition was obtained by comparison of reaction rate with that of a control (i.e. with no test compound). IC50 values were calculated from a series of percent inhibition values determined at a range of inhibitor concentrations using software routines as implemented in the GraphPad Prism software package. The protein construct was prepared by deCODE Biostructures using procedures known in the art. The construct contains […] of cKit, an N-terminal tag, a GST-fusion sequence and a TEV cleavage site.

Experiment [2] concerns the target T2, c-KIT D816V kinase (Seq ID no. 4) (Homo sapiens, UniProt P10721, D816V).
T2 construct: D816V c-KIT (residues T544-V976 with N-terminal GST fusion, 16 nM); purchased deCODE Biostructures
The experiment can be described thus: c-KIT D816V kinase Assay. It is filed as biochemical. To be noted: enzymatic assay, ATP 200 uM. The method, then:
In this assay, the oxidation of NADH (measured by decrease in absorbance at 340 nm) was continuously monitored spectrophotometrically. […] The inhibition reaction was started by mixing serial diluted test compound with the above reaction mixture. The absorption at 340 nm was monitored continuously for 5 hours at 30° C. on Synergy 2 plate reader (BioTech).
The protein construct was prepared by deCODE Biostructures using procedures known in the art. The construct contains residues T544-V976 of cKit, an N-terminal tag, a GST-fusion sequence and a TEV cleavage site. This construct is identical to Seq ID no. 1 except for the D816V mutation.

The target of experiment [3] is T3, c-KIT T670I kinase (Seq ID no. 6) (Homo sapiens, UniProt P10721, T670I).
T3 construct: GST (N); TEV cleavage site (N); purchased deCODE Biostructures
The experiment in a line: c-KIT T670I Kinase Assay. It is filed as biochemical. The following applies: enzymatic assay, ATP 200 uM. The method, then: (§1) In this assay, the oxidation of NADH (measured by decrease in absorbance at 340 nm) was continuously monitored spectrophotometrically. […] The inhibition reaction was started by mixing serial diluted test compound with the above reaction mixture. The absorption at 340 nm was monitored continuously for 5 hours at 30° C. on Synergy 2 plate reader (BioTech). […] The protein construct was prepared by deCODE Biostructures using procedures known in the art. The construct contains […] of cKit, an N-terminal tag, a GST-fusion sequence and a TEV cleavage site. This construct is identical to Seq ID no.

Experiment [4] addresses T4, c-KIT D816H kinase (Seq ID no. 3) (Homo sapiens, UniProt P10721, D816H).
T4 construct: GST (N); TEV cleavage site (N); purchased deCODE Biostructures
The experiment can be described thus: c-KIT D816H Kinase Assay. It is filed as biochemical. The following applies: enzymatic assay, ATP 200 μM. The method, then: as §1, with “6” for “5”, “no. 1 except for the D816H mutation.” for “no.”

Experiment [5] deals with Phospho-KIT (Tyr719) in GIST430 cells (Homo sapiens, UniProt P10721). The experiment in a line: GIST430 KIT Western Blot. Type of experiment: cell-based. The following applies: 4 hours, read-out: pKIT suppression by western blot analysi GIST430. As for the experimental part: (§2) GIST48, GIST430, and GIST882 cells were obtained from J. Fletcher (Brigham and Women's Hospital, Boston, Mass.). GIST T1 cells were obtained from B. Rubin (Cleveland Clinic, Cleveland, Ohio) and Professor Takahiro Taguchi (Kochi Medical School, Nankoku, Kochi, Japan). […] GIST430 cells were grown in Ham's F10 medium supplemented with 15% characterized fetal bovine serum (Invitrogen, Carlsbad, Calif.), 30 mg/L bovine pituitary extract (BD Biosciences, San Jose, Calif.), 0.5% Mito+ serum extender (BD Biosciences, San Jose, Calif.), 1 unit/mL penicillin G, 1 μg/ml streptomycin, and 0.29 mg/mL L-glutamine at 37° C., 5% CO2, 95% humidity. GIST T1 cells were grown in DMEM medium supplemented with 10% characterized fetal bovine serum (Invitrogen, Carlsbad, Calif.), 1 unit/mL penicillin G, 1 ng/ml streptomycin, and 0.29 mg/mL L-glutamine at 37° C., 5% CO2, and 95% humidity. Cells were allowed to expand until reaching 70-95% confluence at which point they were subcultured or harvested for assay use.
(§3) One hundred fifty thousand cells were added per well in a 24-well tissue-culture treated plate. Cells were then incubated overnight at 37° C., 5% CO2, 95% humidity. Medium was aspirated, cells were washed with PBS, and serum-free Ham's F10 medium was added. A serial dilution of test compound was added to plates containing cells and plates were incubated for 4 hours at 37° C., 5% CO2, 95% humidity. Cells were washed with PBS, then lysed. Cell lysates were separated by SDS-PAGE and transferred to PVDF. Phospho-KIT (Tyr719) was detected using an antibody from Cell Signaling Technology (Beverly, Mass.), ECL Plus detection reagent (GE Healthcare, Piscataway, N.J.) and a Molecular Devices Storm 840 phosphorimager in fluorescence mode. Blots were stripped and probed for total KIT using an antibody from Santa Cruz Biotech (Santa Cruz, Calif.). IC50 values were calculated using Prism software (Graphpad, San Diego, Calif.).
For orientation: Immunoblotting shows a protein as a band on a membrane.

The target of experiment [6] is Phospho-KIT (Tyr719) in GIST48 cells (Homo sapiens, UniProt P10721). The experiment in a line: GIST48 KIT Western Blot. It is filed as cell-based. To be noted: 4 hours, read-out: pKIT suppression by western blot analysi GIST48. The method, then:
as §2
as §3, with “Two” for “One”, “RPMI1640” for “Ham's F10”

T2 sequence (P10721 544-976 D816V): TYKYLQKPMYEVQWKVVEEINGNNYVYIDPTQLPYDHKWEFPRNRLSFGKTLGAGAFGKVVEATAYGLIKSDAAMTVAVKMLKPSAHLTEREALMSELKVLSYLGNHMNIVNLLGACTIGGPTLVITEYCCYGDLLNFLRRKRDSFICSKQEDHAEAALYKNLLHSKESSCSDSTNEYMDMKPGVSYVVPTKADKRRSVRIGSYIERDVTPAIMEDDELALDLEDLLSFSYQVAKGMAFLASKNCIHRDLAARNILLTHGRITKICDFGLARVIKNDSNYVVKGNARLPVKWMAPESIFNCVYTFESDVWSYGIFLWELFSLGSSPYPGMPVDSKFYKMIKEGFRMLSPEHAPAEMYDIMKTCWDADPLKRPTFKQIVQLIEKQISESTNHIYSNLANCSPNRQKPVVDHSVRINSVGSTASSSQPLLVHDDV
T3 sequence (P10721 544-976 T670I): as the sequence (P10721 544-976 D816V) above, with T127I, V273D counted along it
T1 sequence (P10721 with tags, fused parts or gaps): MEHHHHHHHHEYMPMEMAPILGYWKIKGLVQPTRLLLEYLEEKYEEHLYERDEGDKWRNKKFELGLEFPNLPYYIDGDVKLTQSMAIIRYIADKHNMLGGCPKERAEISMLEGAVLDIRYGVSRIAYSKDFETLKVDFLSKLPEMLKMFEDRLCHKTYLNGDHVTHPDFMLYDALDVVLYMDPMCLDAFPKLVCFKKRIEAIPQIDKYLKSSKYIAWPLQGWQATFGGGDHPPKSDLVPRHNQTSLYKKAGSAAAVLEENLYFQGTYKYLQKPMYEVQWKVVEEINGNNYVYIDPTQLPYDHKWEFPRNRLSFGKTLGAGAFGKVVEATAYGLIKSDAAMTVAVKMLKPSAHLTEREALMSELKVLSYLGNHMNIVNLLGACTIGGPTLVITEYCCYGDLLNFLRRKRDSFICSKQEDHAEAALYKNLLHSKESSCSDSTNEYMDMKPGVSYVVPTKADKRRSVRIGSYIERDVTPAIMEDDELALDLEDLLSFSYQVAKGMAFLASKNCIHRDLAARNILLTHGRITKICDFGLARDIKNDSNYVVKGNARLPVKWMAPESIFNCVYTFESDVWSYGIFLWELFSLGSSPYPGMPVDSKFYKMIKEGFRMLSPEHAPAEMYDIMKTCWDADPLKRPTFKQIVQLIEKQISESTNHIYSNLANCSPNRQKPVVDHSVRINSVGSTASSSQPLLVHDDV
T4 sequence (P10721 544-976 D816H): as the sequence (P10721 544-976 D816V) above, with V273H counted along it
Phospho-KIT (Tyr719) in GIST48 cells, sequence (P10721 whole entry V560D/D820A, form open): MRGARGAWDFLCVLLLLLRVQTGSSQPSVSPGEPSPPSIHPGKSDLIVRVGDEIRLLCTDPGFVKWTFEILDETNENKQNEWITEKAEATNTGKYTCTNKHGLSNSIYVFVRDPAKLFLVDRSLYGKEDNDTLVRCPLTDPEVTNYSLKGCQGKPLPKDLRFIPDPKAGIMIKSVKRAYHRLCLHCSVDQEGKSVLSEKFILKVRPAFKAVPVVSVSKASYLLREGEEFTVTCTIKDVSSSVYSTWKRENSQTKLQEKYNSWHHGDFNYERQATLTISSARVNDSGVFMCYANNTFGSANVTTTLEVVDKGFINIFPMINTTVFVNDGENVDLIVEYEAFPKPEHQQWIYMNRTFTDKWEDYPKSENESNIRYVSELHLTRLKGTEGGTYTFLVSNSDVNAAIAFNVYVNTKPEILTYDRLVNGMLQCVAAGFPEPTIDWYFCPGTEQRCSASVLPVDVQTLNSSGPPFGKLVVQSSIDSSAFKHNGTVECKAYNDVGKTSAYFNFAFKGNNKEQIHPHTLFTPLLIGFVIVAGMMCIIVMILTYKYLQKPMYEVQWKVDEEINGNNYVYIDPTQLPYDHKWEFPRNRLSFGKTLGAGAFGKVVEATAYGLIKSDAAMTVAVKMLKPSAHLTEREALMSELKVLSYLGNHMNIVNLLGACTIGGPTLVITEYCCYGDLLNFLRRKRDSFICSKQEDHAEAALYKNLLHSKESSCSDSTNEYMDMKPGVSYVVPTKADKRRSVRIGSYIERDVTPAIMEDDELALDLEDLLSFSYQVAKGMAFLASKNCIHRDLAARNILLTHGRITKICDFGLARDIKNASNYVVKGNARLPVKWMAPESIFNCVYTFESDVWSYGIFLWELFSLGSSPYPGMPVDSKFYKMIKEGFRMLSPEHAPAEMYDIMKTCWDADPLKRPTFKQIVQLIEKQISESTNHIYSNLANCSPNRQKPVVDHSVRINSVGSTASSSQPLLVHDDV
Phospho-KIT (Tyr719) in GIST430 cells, sequence (P10721 with tags, fused parts or gaps DEL560-576/V654A, form open): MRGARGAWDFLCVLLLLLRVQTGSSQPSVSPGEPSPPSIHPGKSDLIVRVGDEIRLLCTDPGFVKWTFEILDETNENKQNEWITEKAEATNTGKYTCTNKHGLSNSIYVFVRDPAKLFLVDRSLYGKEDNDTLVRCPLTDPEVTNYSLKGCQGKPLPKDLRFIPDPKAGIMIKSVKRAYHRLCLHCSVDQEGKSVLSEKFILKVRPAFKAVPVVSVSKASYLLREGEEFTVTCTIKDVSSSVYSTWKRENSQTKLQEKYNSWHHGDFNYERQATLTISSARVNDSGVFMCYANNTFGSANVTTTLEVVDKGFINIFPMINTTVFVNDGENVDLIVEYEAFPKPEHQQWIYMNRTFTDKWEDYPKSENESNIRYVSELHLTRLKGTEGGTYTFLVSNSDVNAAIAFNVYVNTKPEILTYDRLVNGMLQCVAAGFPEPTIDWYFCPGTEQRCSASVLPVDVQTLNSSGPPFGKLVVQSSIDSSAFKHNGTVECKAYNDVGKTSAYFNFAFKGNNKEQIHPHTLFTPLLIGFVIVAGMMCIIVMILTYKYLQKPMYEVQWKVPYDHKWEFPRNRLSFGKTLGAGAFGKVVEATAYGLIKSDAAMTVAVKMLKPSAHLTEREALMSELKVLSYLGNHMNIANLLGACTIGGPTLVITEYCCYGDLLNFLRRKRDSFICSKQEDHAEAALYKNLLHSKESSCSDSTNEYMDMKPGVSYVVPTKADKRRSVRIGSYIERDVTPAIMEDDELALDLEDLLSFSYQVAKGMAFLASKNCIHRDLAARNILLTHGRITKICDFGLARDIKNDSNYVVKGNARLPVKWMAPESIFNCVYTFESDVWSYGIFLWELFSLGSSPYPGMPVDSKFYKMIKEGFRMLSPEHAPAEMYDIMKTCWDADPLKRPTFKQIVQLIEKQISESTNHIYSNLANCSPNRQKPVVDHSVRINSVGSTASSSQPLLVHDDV

Consider `CCn1c(=O)c(-c2cc(NC(=O)Nc3ccccc3)c(F)cc2Cl)cc2cnc(NC3CCOCC3)cc21` [Example 42, 1-(4-chloro-5-(1-ethyl-2-oxo-7-(tetrahydro-2H-pyran-4-ylamino)-1,2-dihydro-1,6-naphthyridin-3-yl)-2-fluorophenyl)-3-phenylurea], for which the results for the IC50 in experiment [1], in experiment [2] and in experiment [3] were 10 to 100 nM, 10 to 100 nM and 100 to 1000 nM, respectively.

As to `CCn1c(=O)c(-c2cc(NC(=O)Nc3ccccc3)c(F)cc2Cl)cc2cnc(NC3CCN(C)CC3)cc21` [Example 46, 1-(4-chloro-5-(1-ethyl-7-(1-methylpiperidin-4-ylamino)-2-oxo-1,2-dihydro-1,6-naphthyridin-3-yl)-2-fluorophenyl)-3-phenylurea], the IC50 was 10 to 100 nM in experiment [1], 100 to 1000 nM in experiment [2] and > 1000 nM in experiment [3].

`CCn1c(=O)c(-c2cc(NC(=O)Nc3ccccc3)c(F)cc2Cl)cc2cnc(NC3CCOC3)cc21` (centres unmarked) [Example 47, 1-(4-chloro-5-(1-ethyl-2-oxo-7-(THF-3-ylamino)-1,2-dihydro-1,6-naphthyridin-3-yl)-2-fluorophenyl)-3-phenylurea]: the IC50 is < 10 nM in experiment [1], 10 to 100 nM in experiment [2] and > 1000 nM in experiment [3].

As to `CCn1c(=O)c(-c2cc(NC(=O)Nc3ccccc3)c(F)cc2Cl)cc2cnc(NCCS(C)(=O)=O)cc21` [Example 48, 1-(4-chloro-5-(1-ethyl-7-(2-(methylsulfonyl)ethylamino)-2-oxo-1,2-dihydro-1,6-naphthyridin-3-yl)-2-fluorophenyl)-3-phenylurea], the IC50 in experiment [1] was 10 to 100 nM; in experiment [2], 100 to 1000 nM; in experiment [3], > 1000 nM.

For `CCn1c(=O)c(-c2cc(NC(=O)Nc3ccccc3)c(F)cc2Cl)cc2cnc(NC3CCN(C)C3)cc21` (centres unmarked) [Example 49, 1-(4-chloro-5-(1-ethyl-7-(1-methylpyrrolidin-3-ylamino)-2-oxo-1,2-dihydro-1,6-naphthyridin-3-yl)-2-fluorophenyl)-3-phenylurea], the IC50 in experiment [1] was 10 to 100 nM; in experiment [2], 100 to 1000 nM; in experiment [3], 100 to 1000 nM.

As for `CCn1c(=O)c(-c2cc(NC(=O)Nc3ccccc3)c(F)cc2Br)cc2cnc(NCCS(C)(=O)=O)cc21` [Example 52, 1-(4-bromo-5-(1-ethyl-7-(2-(methylsulfonyl)ethylamino)-2-oxo-1,2-dihydro-1,6-naphthyridin-3-yl)-2-fluorophenyl)-3-phenylurea], the IC50 in experiment [1] was < 10 nM; in experiment [4], 100 to 1000 nM.

As to `CCn1c(=O)c(-c2cc(NC(=O)Nc3ccccc3)c(F)cc2F)cc2cnc(NC(C)=O)cc21` [Example 66, 1-(5-(7-acetamido-1-ethyl-2-oxo-1,2-dihydro-1,6-naphthyridin-3-yl)-2,4-difluorophenyl)-3-phenylurea], the IC50 in experiment [1] was < 10 nM; in experiment [2], 10 to 100 nM; in experiment [3], 10 to 100 nM; in experiment [5] it was 10 to 100 nM; in experiment [6] it was 100 to 1000 nM.

`CCn1c(=O)c(-c2cc(NC(=O)Nc3ccccc3)c(F)cc2F)cc2cnc(NC(=O)CC#N)cc21` [Example 75, 2-cyano-N-(3-(2,4-difluoro-5-(3-phenylureido)phenyl)-1-ethyl-2-oxo-1,2-dihydro-1,6-naphthyridin-7-yl)acetamide]: the IC50 is < 10 nM in experiment [1], 100 to 1000 nM in experiment [4], 100 to 1000 nM in experiment [2] and 10 to 100 nM in experiment [3].

Consider `CCn1c(=O)c(-c2cc(NC(=O)Nc3ccccc3)c(F)cc2C#N)cc2cnc(NC)cc21` [Example 76, 1-(4-cyano-5-(1-ethyl-7-(methylamino)-2-oxo-1,2-dihydro-1,6-naphthyridin-3-yl)-2-fluorophenyl)-3-phenylurea], for which the IC50 in experiment [1] was < 10 nM; in experiment [2], 10 to 100 nM; in experiment [3], 100 to 1000 nM.

With `CCn1c(=O)c(-c2cc(NC(=O)Nc3ccccc3)c(F)cc2Cl)cc2cnc(NC(=O)[C@@H]3CCCN3)cc21` [Example 85, (S)—N-(3-(2-chloro-4-fluoro-5-(3-phenylureido)phenyl)-1-ethyl-2-oxo-1,2-dihydro-1,6-naphthyridin-7-yl)pyrrolidine-2-carboxamide], the IC50 was in the range of 10 to 100 nM in experiment [1], 10 to 100 nM in experiment [2] and 100 to 1000 nM in experiment [3].

Turning to `CCn1c(=O)c(-c2cc(NC(=O)Nc3ccc(F)c(CN(C)C)c3)c(F)cc2Cl)cc2cnc(NC)cc21` [Example 94, 1-(4-chloro-5-(1-ethyl-7-(methylamino)-2-oxo-1,2-dihydro-1,6-naphthyridin-3-yl)-2-fluorophenyl)-3-(3-((dimethylamino)methyl)-4-fluorophenyl)urea], the IC50 in experiment [1] is < 10 nM; in experiment [2], > 1000 nM; in experiment [3], 10 to 100 nM.

As for `CCn1c(=O)c(-c2cc(NC(=O)Nc3ccc(F)c(CN4CCOCC4)c3)c(F)cc2Cl)cc2cnc(NC=O)cc21` [Example 107, N-(3-(2-chloro-4-fluoro-5-(3-(4-fluoro-3-(morpholinomethyl)phenyl)ureido)phenyl)-1-ethyl-2-oxo-1,2-dihydro-1,6-naphthyridin-7-yl)formamide], the IC50 in experiment [1] is 10 to 100 nM; in experiment [2], > 1000 nM; in experiment [3], 10 to 100 nM.

In the case of `CCn1c(=O)c(-c2cc(NC(=O)Nc3ccccc3)c(F)cc2C)cc2cnc(Nc3ccc(C)nc3)cc21` [Example 111, 1-(5-(1-ethyl-7-((6-methylpyridin-3-yl)amino)-2-oxo-1,2-dihydro-1,6-naphthyridin-3-yl)-2-fluoro-4-methylphenyl)-3-phenylurea], the IC50 lay in the range of 10 to 100 nM in experiment [1], 10 to 100 nM in experiment [2] and 100 to 1000 nM in experiment [3].
